The text below walks through data of article PMC5829097, “Designing Antibacterial Peptides with Enhanced Killing Kinetics” (Frontiers in Microbiology, 2018).

In one series the test system is human RBCs. Nature of the series: Cytotoxicity assay against human erythrocytes (hemolysis). The format is cell-based. Conditions: pH 7.4. The method, then: Hemolysis was determined by incubating 10% (v/v) suspension of human RBCs in PBS (pH 7.4) with different concentrations of peptides [BMAP28(1–18), P1, and P1m] ranging from 1.56 to 100 μM at 37°C for 1 h. RBCs incubated with 0.1% Triton X-100 was used as the positive control and RBCs incubated with PBS was used as blank. The incubated mixtures were centrifuged at 500 × g for 5 min. The hemolytic activity of the peptides was determined by measuring the absorbance of the supernatant at 541 nm. The percent hemolysis was calculated using the equation:
H=(absorbance of sample−absorbance of blank/absorbance of positive control−absorbance of blank)×100
The percentage hemolysis (H) was fitted using a Hill function with respect to the peptide concentration.
The % hemolysis was fitted using Hill equation to obtain n and K values. These values are also referred in Table 4 in the main text.

For series [1], the system named is Escherichia coli ATCC 8739. Kind of series: Antimicrobial assay, microdilution method (MIC; % death fitted to Hill equation). It is filed as cell-based. Conditions: for Hill coefficient n, Gram −ve (E. coli 8739): Hill fit of % death after 18 h incubation vs peptide concentration; for EC50: Hill fit of % death after 18 h incubation, peptide concentration for 50% death, peptides tested in μM, unit inferred, read-out: half saturation constant K, Gram −ve (E. coli 8739). The procedure:
(§1) Antimicrobial activity of peptides against Gram-positive (Staphylococcus aureus ATCC 25923, S. aureus ATCC 6538P) and Gram-negative (Escherichia coli ATCC 25922, E. coli ATCC 8739) bacteria were determined by microdilution method. Bacterial cultures were grown in Mueller–Hinton (MH) broth at 37°C for 18 h on a shaker to obtain an OD600 nm of 0.8. The cultures were diluted in MH broth to obtain a cell density of 10^5-10^6 c.f.u/ml. The peptides were serially diluted in MH broth. The serially diluted peptides were inoculated with bacterial cultures in 1:1 ratio in sterile 96-well microtiter plates. A bovine myeloid antimicrobial peptide, BMAP28(1–18), was used as the positive control. The peptides were tested for antimicrobial activity in the range from 1 to 100 μM. The MICs of the peptides were determined by OD600 nm measurements after 18 h of incubation at 37°C. Bacterial strains were purchased from National Collection of Industrial Microorganisms, National Chemical Laboratories, Pune, India. The percentage death evaluated for S. aureus ATCC 25923 and E. coli ATCC 8739 after 18 h incubation was fitted to a Hill equation and the parameters namely Hill coefficient (n) and the half-saturation constant (K) were evaluated (Details in Supplementary File).
(§2) The % death value after 18h incubation of the organisms (E. coli ATCC 8739 and S. aureus ATCC 25923) with the peptides was fitted using the Hill equation: […]
(§3) The percentage death was fitted to a sigmoidal input-output relationship through Hill's Equation as given below.
(§4) Here, Y is the normalized percentage death taking values in the range [0,1] and X is the concentration of the antimicrobial peptide. The data for value of Y was obtained through experiments. It can be noted that the Hill's Equation has two parameters namely, n and K, Hill's Coefficient and Half Saturation Constant, also referred to as K0.5. The values of the parameters are specific to a system. The Hill Equation can be linearized as follows.
(§5) The linear equation was fitted by plotting LHS of the above equation versus ln(X). The slope of the best fit line equation (linear regression) will yield the value of Hill's coefficient and the value of the intercept can be further used to evaluate the value of the half saturation constant, K. The Hill coefficient (n) determines the sensitivity of the response (steepness of the sigmoidal curve) and the half saturation constant (K) determines the threshold input needed for the response (equivalent to EC50 value).
A general note: Broth dilution looks for growth in wells or tubes with falling amounts of substance.

For series [2], the system named is Staphylococcus aureus ATCC 25923. Described as above. The format is cell-based. Conditions: for Hill coefficient n, Gram +ve (S. aureus 25923): Hill fit of % death after 18 h incubation vs peptide concentration; for EC50: Hill fit of % death after 18 h incubation, peptide concentration for 50% death, peptides tested in μM, unit inferred, read-out: half saturation constant K, Gram +ve (S. aureus 25923). The method, then: as §1, §2, §3, §4, §5

The next series deals with S. aureus ATCC 25923. Nature of the series: Killing kinetics assay (time-kill, first order death rate constant). Conditions: for behavior of the kinetic (death rate) constant as a function of peptide concentration: S. aureus time-kill, concentrations up to 50 μM; for Hills coefficient of death rate constant vs peptide concentration (initial saturating phase) / half saturation constant of death rate constant vs peptide concentration (initial saturating phase): fit Equations 1-3, S. aureus ATCC 25923. It is filed as cell-based, Staphylococcus aureus. The method, then: Overnight grown culture (S. aureus ATCC 25923) was diluted in fresh MH broth and allowed to grow to obtain OD600 nm of 0.8. The culture was diluted in MH broth to obtain a cell density of 10^5-10^6 c.f.u/ml and was incubated with the peptides at various concentrations within the MIC range for each peptide [BMAP28(1–18), P1, and P1m] till a highest concentration of 50 μM. Aliquots were drawn at specific time intervals and plated after dilution on MH agar plates. The plates were incubated at 37°C for 24 h to obtain viable colonies for calculating the initial death rates of the peptides. The kinetic rate constant was determined by evaluation of c.f.u count at various time points ranging from 10 to 45 min. First order death rate constant was determined by plotting log(c.f.u) vs. time and the slope of linear fit yielded the death rate constant. Four to five time points were used to determine the rate constant. Only two time points were considered for death rate constant at very high concentration (50 μM) as complete killing occurred in the first 15 min.
To further study the effect of mutation on behaviour of peptides, the first order rate constant for the death of S. aureus ATCC 25923 was determined by performing time-kill assays using BMAP28(1-18), P1 and P1m. The following equations were obtained by the fit.
In the first phase, the rate constant saturated to about 28.5 h^-1 up to a peptide concentration of 30µM. […] The behaviour of the rate constant was captured as a product of two functions, namely, an initial region represented by Hills Equation indicating a saturating behaviour, and exponential increase post saturation (Equation 1-3). […] A Hills coefficient greater than 2 indicates a sensitive response requiring only about less than 9 fold change in the concentration to reach saturation. But a lower half saturation constant for BMAP28(1-18) indicates higher affinity of binding of the peptides to the cell membrane for BMAP28(1-18) compared to that for P1m. […] This dramatic effect was caused due to a single change in the residue of an amino-acid. It may be possible that the second phase for P1 may occur at a higher concentration of peptide.
The initial rate constant was determined by fitting the first order death kinetics. The CFU (C) of the organism/cell was determined experimentally in time. The first order rate constant, k, was evaluated by linear fitting the equation given below: […]

The subject of series [3] is Staphylococcus aureus ATCC 6538P. Kind of series: Antimicrobial assay, microdilution method (MIC). Conditions: value marked *: 50% inhibition, MH broth, 18 h, 37°C, OD600 nm, triplicates of three independent experiments. It is filed as cell-based. The procedure: as §1
Series [4] has as its system Escherichia coli ATCC 25922. Nature of the series: Antimicrobial assay, microdilution method (MIC). It is filed as cell-based. Conditions: MH broth, 10^5-10^6 c.f.u/ml, 18 h, 37°C, OD600 nm, tested 1 to 100 μM, average range from triplicates of three independent experiments. The procedure: as §1
The mark [5] stands for this setting: value marked *: 50% inhibition, microdilution, MH broth, 18 h, 37°C, OD600 nm, triplicates of three independent experiments.
Setting [6] is: microdilution, MH broth, 10^5-10^6 c.f.u/ml, 18 h, 37°C, OD600 nm, tested 1 to 100 μM, average range from triplicates of three independent experiments.

Marks after values point to notes of the source that are not given here. Square brackets hold non-standard residues; d marks the D form. Peptide text beside a SMILES is read from it. 12Ado = NCCCCCCCCCCCC(=O)O

For `CC[C@H](C)[C@H](NC(=O)[C@H](CCCCN)NC(=O)[C@H](CCCNC(=N)N)NC(=O)CNC(=O)[C@H](CC(C)C)NC(=O)[C@H](CO)NC(=O)[C@H](CCCNC(=N)N)NC(=O)[C@H](CC(C)C)NC(=O)CNC(=O)CNC(=O)CCCCCCCCCCCN)C(=O)N[C@@H](CC(C)C)C(=O)N[C@@H](CCCNC(=N)N)C(=O)N[C@@H](C)C(=O)N[C@@H](Cc1c[nH]c2ccccc12)C(=O)N[C@@H](CCCCN)C(=O)N[C@@H](CCCCN)C(=O)N[C@@H](Cc1ccc(O)cc1)C(=O)NCC(N)=O` [BMAP28(1–18), reference compound] (H-[12Ado]GGLRSLGRKILRAWKKYG-NH2; N-terminus and C-terminus assumed), the “half saturation constant K, Human RBCs” value in the series with human RBCs was 61.4. Moreover, in series [1], the “Hill coefficient n, Gram −ve (E. coli 8739)” value turned out to be 3.07 and the EC50 was determined as 2.2 µM. Also, in series [2], the “Hill coefficient n, Gram +ve (S. aureus 25923)” value was found to be 2.5 and the EC50 turned out to be 1.4 µM. Further, in the series on S. aureus ATCC 25923, the “behavior of the kinetic (death rate) constant as a function of peptide concentration” value is given as “biphasic behavior”, the “Hills coefficient of death rate constant vs peptide concentration (initial saturating phase)” value was found to be 2.4 and the “half saturation constant of death rate constant vs peptide concentration (initial saturating phase)” value is recorded as 3.1 µM. In addition, in the series on S. aureus ATCC 25923 (at 50µM of the peptide), the “time sufficient to reduce the cell number by half” value was “about 40 s”. In the series with S. aureus ATCC 25923 (first order, slope of log(c.f.u) vs time, 50 µM, two time points), the “death rate constant at 50µM of the peptide” value is on record as “about 60 h^-1”.
As to “CILRWLARKIPWHAKKYG [P2, designed 18-residue MAP-family-like peptide, N-terminal amino-lauric acid and C-terminal amide]”, in series [3], the “MIC, S. aureus 6538 P (* 50% inhibition)” value is 12.5–25^* μM. Further, in series [4], the “MIC, E. coli 25922” value is “NA (NA-inactive upto 100μM)”. The “MIC, E. coli 8739 (* 50% inhibition)” value in series [1] (setting [5]) is 50–100^* μM. Moreover, the “MIC, S. aureus 25923 (* 50% inhibition)” value in series [2] (setting [5]) is recorded as 50–100^* μM.
Consider “VFLRILVRKIAPGVKKYG [P3, designed 18-residue MAP-family-like peptide, N-terminal amino-lauric acid and C-terminal amide]”, for which the “MIC, S. aureus 6538 P (* 50% inhibition)” value in series [3] is 50–100^* μM. In addition, in series [4], the “MIC, E. coli 25922” value is “NA (NA-inactive upto 100μM)”. In series [1] (setting [6]), the “MIC, E. coli 8739” value is “NA (NA-inactive upto 100μM)”. Further, the “MIC, S. aureus 25923” value in series [2] (setting [6]) was “NA (NA-inactive upto 100μM)”.
Consider `CC[C@H](C)[C@H](NC(=O)CNC(=O)[C@H](CC(C)C)NC(=O)[C@@H](NC(=O)[C@@H](NC(=O)[C@H](CCCCN)NC(=O)[C@H](CCCNC(=N)N)NC(=O)[C@H](C)NC(=O)[C@H](CC(C)C)NC(=O)[C@H](C)NC(=O)[C@H](CCCNC(=N)N)NC(=O)[C@H](CC(C)C)NC(=O)[C@H](CC(C)C)NC(=O)[C@@H](NC(=O)CCCCCCCCCCCN)C(C)C)[C@@H](C)CC)[C@@H](C)O)C(=O)N[C@@H](CCCCN)C(=O)N[C@@H](CCCCN)C(=O)N[C@@H](Cc1ccc(O)cc1)C(=O)NCC(N)=O` [P1] (H-[12Ado]VLLRALARKITLGIKKYG-NH2), for which the “half saturation constant K, Human RBCs” value in the series with human RBCs stood at 170. In addition, in series [1], the “Hill coefficient n, Gram −ve (E. coli 8739)” value worked out at 1.02 and the EC50 is 26.6 µM. In series [2], the “Hill coefficient n, Gram +ve (S. aureus 25923)” value is listed as 1.2 and the EC50 stood at 3 µM. In the series with S. aureus ATCC 25923, the “behavior of the kinetic (death rate) constant as a function of peptide concentration” value is listed as “monophasic behavior”, the “Hills coefficient of death rate constant vs peptide concentration (initial saturating phase)” value worked out at 2.3 and the “half saturation constant of death rate constant vs peptide concentration (initial saturating phase)” value worked out at 8.4 µM.
